For test [1], the target named is T1, Lysine-specific demethylase 4C (Homo sapiens) (UniProt Q9H3R0).
T1 sequence (whole entry): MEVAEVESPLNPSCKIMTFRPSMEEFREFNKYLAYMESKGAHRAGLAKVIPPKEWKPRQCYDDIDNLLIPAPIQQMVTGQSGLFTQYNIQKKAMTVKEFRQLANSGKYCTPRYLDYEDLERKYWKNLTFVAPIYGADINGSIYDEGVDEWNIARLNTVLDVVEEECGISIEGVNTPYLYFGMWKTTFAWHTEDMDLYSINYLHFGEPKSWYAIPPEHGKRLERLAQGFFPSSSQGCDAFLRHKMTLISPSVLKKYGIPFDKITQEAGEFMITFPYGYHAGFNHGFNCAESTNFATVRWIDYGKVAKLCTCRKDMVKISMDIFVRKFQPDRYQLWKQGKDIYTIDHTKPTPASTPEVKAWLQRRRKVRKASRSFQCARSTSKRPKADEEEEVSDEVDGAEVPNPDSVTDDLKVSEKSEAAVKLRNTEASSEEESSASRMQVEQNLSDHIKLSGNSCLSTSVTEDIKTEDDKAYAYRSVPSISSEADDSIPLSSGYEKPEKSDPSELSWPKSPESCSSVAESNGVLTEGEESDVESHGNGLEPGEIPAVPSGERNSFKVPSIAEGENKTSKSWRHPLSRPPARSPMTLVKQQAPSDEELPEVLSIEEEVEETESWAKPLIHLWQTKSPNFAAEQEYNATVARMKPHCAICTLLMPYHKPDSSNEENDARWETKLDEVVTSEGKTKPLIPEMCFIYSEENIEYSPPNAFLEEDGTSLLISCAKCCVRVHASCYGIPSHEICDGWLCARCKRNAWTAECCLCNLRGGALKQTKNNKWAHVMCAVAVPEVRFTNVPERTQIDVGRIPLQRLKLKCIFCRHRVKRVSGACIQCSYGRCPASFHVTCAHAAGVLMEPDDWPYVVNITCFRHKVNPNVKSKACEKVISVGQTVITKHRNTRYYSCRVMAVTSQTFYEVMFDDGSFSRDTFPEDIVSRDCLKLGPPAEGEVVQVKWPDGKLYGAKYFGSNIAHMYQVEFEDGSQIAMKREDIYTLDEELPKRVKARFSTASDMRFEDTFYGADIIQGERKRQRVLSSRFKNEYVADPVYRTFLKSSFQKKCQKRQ
Briefly: Binding affinity to N-terminal His6-tagged KDM4C (1 to 352 residues) (unknown origin) expressed in Escherichia coli Rosetta 2(DE3)pLysS at 1.7 mM by SYPRO Orange dye based thermal shift assay.

Test [2] can be described thus: Inhibition of AmpC beta-lactamase (unknown origin).
Test [3] concerns the target T2, Lysine-specific demethylase 4C (Homo sapiens, UniProt Q9H3R0).
T2 sequence (Q9H3R0 whole entry): T1 sequence (whole entry)
Briefly: (§1) Inhibition of N-terminal His6-tagged KDM4C (1 to 352 residues) (unknown origin) expressed in Escherichia coli Rosetta 2(DE3)pLysS using biotinylated histone H3 (1 to 21 residues) lysine 9 trimethylated peptide/2 uM alpha-ketoglutarate as substrate/cofactor measured after 45 mins by TR-FRET assay.

Test [4] in a line: Induction of aggregates formation assessed as particle formation up to 10 uM by dynamic light scattering method.
For test [5], the target named is T2, Lysine-specific demethylase 4C. The test can be described thus: Inhibition of N-terminal His6-tagged KDM4C (1 to 352 residues) (unknown origin) expressed in Escherichia coli Rosetta 2(DE3)pLysS using biotinylated histone H3 (1 to 21 residues) lysine 9 trimethylated peptide/50 uM alpha-ketoglutarate as substrate/cofactor measured after 45 mins by TR-FRET assay. (In general: TR-FRET usually uses a lanthanide donor and a delayed reading to cut background.)

Test [6] deals with T1, Lysine-specific demethylase 4C (Homo sapiens). The description is as §1.

Here are results for 30 compounds from ChEMBL document CHEMBL3774347, “Docking and Linking of Fragments To Discover Jumonji Histone Demethylase Inhibitors” (J Med Chem, 2016).

The source made the active and inactive calls. The calls are words filed in the database; no cut-off is given here.

As a reminder, the IC50 is the concentration needed to halve the response being measured.

On to `Cc1ccccc1CNc1ccc(O)c(C(=O)O)c1`, for which the outcome in test [1] was Active. Further, the inhibition result in test [2] is “inactive”.

With `COCC(=O)Nc1ccc(O)c(C(=O)O)c1`, the IC50 in test [3] (read-out: IC50) came out at 98 µM. For the same compound, in test [4], the outcome was inactive.

With `COc1ccc(CC(=O)Nc2ccc(O)c(-c3cc(C(=O)O)ccn3)c2)cc1`, the IC50 in test [3] (read-out: IC50) amounted to 0.069 µM; in test [5] (read-out: IC50), 3.7 µM.

For the compound `O=C(O)[C@@H]1CC(=O)N(c2nccs2)C1`, in test [3] (read-out: IC50), the IC50 turned out to be 676 µM.

Turning to `O=C(Cc1ccccc1)Nc1ccc(O)c(-c2cc(C(=O)O)ccn2)c1`, the IC50 in test [3] (read-out: IC50) turned out to be 0.43 µM; in test [5] (read-out: IC50), 17 µM.

Turning to `CC(=O)N[C@@H](CCC(=O)O)C(=O)O`, the IC50 in test [3] (read-out: IC50) amounted to 2070 µM.

In the case of `C[C@@H](NC(=O)c1cc(Cl)ccn1)C(=O)O`, the 50% inhibitory concentration (IC50) in test [3] (read-out: IC50) turned out to be 1210 µM.

Consider `O=C(O)c1ccnc(-c2cc(NC(=O)c3ccno3)ccc2O)c1`, for which the IC50 in test [3] (read-out: IC50) came out at 1.02 µM.

For the compound `O=C(O)c1ccnc(-c2cc(NCc3ccc(Br)cc3)ccc2O)c1`, the IC50 in test [3] (read-out: IC50) is 2.5 µM.

With `CCCNC(=O)NC(C)(C)C(=O)O`, the IC50 in test [3] (read-out: IC50) was 126 µM.

Turning to `NC(=O)N[C@H](Cc1c[nH]c2ccccc12)C(=O)O`, the IC50 in test [3] (read-out: IC50) is 54.7 µM.

On to `O=C(O)Cn1nnnc1COc1ccccc1`, for which, in test [3] (read-out: IC50), the IC50 is 2320 µM.

As to `Nc1ccc(O)c(-c2cc(C(=O)O)ccn2)c1`, the IC50 in test [3] (read-out: IC50) stood at 8.3 µM.

Turning to `O=C(O)CNC(=O)c1ccc2ccccc2n1`, the IC50 in test [3] (read-out: IC50) is 2810 µM.

On to `Cn1nccc1CNc1ccc(O)c(-c2cc(C(=O)O)ccn2)c1`, for which the IC50 in test [3] (read-out: IC50) was 0.77 µM.

As to `O=C(O)c1ccnc(-c2cc(NCc3cccc4c3OCO4)ccc2O)c1`, in test [3] (read-out: IC50), the 50% inhibitory concentration (IC50) amounted to 0.56 µM.

In the case of `CC(=O)Nc1ccc(O)c(-c2ccccn2)c1`, the IC50 result in test [3] and in test [5] was “Not Active” throughout.

As for `N#Cc1ccc(O)c(-c2cc(C(=O)O)ccn2)c1`, the IC50 in test [3] (read-out: IC50) is 6 µM.

Turning to `CN1CCN(C(=O)c2ccn(CC(=O)O)n2)CC1`, the IC50 in test [3] (read-out: IC50) was determined as 387 µM.

Consider `Cc1cc(O)c2c(CC(=O)O)cc(=O)oc2c1`, for which the IC50 in test [3] (read-out: IC50) was 176 µM.

On to `O=C(Cc1cccc(Br)c1)Nc1ccc(O)c(-c2cc(C(=O)O)ccn2)c1`, for which the IC50 in test [3] (read-out: IC50) stood at 0.17 µM; in test [5] (read-out: IC50) it was 3.4 µM.

On to `NC(=O)N[C@@H](Cc1c[nH]c2ccccc12)C(=O)O`, for which the IC50 in test [3] (read-out: IC50) was 18.6 µM.

Regarding `CC(=O)c1ccccc1-c1cc(C(=O)O)ccn1`, the IC50 in test [3] (read-out: IC50) was found to be 507 µM.

For the compound `O=C(O)c1cc(NCc2cccc3c2OCO3)ccc1O`, the IC50 in test [3] (read-out: IC50) was determined as 15 µM.

Turning to `O=C(O)c1ccnc(-c2cc(NC(=O)c3ccccc3O)ccc2O)c1`, the 50% inhibitory concentration (IC50) in test [3] (read-out: IC50) came out at 4.6 µM.

Take `CCNC(=S)Nc1ccc(O)c(C(=O)O)c1`: the IC50 in test [3] (read-out: IC50) worked out at 165 µM.

On to `CC(=O)Nc1ccc(O)c(C(=O)O)c1`, for which the inhibition result in test [6] was “inactive”.

For the compound `O=C(O)c1ccnc(-c2cc(NC(=O)c3cccc(O)c3)ccc2O)c1`, the IC50 in test [3] (read-out: IC50) amounted to 0.46 µM.

As for `Cn1nccc1CNc1ccc(O)c(C(=O)O)c1`, the IC50 in test [3] (read-out: IC50) was found to be 58 µM. For the same compound, the outcome in test [4] was inactive.

For `COc1ccc(N)cc1-c1cc(C(=O)O)ccn1`, the IC50 in test [3] (read-out: IC50) worked out at 310 µM.
